# Test results: ChEMBL document CHEMBL2046359, “Novel tricyclic indeno[2,1-d]pyrimidines with dual antiangiogenic and cytotoxic activities as potent antitumor agents” (Bioorg Med Chem, 2012)
# pIC50: −log10 of the molar value. Activity calls are given as the source filed them. No cut-off for these calls is given here.
# What was measured:
# [1] = system: A-431; experiment: Antiproliferative activity against human A431 cells after 48 hrs by CYQUANT assay; type: functional, cell-based; conditions: A-431, 48 h
# [2] = target: Platelet-derived growth factor receptor beta (Homo sapiens, UniProt P09619); experiment: Inhibition of PDGFRbeta in human SF539 cells pretreated for 60 mins measured after 10 mins by ELISA
# Chain of Platelet-derived growth factor receptor beta (P09619 whole entry): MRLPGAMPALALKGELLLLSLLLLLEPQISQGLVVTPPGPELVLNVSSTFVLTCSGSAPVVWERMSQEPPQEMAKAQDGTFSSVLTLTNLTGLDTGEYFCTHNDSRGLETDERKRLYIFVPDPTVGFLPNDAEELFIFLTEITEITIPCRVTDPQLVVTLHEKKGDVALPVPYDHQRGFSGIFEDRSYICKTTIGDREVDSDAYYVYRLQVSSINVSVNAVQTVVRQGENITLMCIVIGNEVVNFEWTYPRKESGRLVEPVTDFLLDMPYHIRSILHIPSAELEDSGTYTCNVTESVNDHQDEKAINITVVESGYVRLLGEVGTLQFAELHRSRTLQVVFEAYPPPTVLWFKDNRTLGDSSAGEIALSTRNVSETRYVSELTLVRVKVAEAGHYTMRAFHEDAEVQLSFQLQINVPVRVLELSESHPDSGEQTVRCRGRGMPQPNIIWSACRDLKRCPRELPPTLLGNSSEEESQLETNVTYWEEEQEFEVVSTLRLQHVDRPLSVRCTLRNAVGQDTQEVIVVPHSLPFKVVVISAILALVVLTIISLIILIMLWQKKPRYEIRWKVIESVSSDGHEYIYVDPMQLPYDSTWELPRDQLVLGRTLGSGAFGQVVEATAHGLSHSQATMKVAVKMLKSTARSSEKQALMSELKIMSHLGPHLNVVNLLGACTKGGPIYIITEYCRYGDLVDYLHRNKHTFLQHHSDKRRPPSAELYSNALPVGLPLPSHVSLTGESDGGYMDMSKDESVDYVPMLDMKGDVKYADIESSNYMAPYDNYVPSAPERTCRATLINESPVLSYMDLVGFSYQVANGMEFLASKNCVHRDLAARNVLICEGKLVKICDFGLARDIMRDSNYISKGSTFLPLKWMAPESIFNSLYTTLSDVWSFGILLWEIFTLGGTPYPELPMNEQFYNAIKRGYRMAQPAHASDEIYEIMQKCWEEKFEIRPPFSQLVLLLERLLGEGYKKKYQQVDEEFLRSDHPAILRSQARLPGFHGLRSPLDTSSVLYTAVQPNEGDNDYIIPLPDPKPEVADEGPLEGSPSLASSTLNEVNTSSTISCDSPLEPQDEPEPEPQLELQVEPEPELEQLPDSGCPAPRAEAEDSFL
# [3] = target: Vascular endothelial growth factor receptor 2 (Homo sapiens, UniProt P35968); type: cell-based, U-251
# Chain of Vascular endothelial growth factor receptor 2 (P35968 whole entry): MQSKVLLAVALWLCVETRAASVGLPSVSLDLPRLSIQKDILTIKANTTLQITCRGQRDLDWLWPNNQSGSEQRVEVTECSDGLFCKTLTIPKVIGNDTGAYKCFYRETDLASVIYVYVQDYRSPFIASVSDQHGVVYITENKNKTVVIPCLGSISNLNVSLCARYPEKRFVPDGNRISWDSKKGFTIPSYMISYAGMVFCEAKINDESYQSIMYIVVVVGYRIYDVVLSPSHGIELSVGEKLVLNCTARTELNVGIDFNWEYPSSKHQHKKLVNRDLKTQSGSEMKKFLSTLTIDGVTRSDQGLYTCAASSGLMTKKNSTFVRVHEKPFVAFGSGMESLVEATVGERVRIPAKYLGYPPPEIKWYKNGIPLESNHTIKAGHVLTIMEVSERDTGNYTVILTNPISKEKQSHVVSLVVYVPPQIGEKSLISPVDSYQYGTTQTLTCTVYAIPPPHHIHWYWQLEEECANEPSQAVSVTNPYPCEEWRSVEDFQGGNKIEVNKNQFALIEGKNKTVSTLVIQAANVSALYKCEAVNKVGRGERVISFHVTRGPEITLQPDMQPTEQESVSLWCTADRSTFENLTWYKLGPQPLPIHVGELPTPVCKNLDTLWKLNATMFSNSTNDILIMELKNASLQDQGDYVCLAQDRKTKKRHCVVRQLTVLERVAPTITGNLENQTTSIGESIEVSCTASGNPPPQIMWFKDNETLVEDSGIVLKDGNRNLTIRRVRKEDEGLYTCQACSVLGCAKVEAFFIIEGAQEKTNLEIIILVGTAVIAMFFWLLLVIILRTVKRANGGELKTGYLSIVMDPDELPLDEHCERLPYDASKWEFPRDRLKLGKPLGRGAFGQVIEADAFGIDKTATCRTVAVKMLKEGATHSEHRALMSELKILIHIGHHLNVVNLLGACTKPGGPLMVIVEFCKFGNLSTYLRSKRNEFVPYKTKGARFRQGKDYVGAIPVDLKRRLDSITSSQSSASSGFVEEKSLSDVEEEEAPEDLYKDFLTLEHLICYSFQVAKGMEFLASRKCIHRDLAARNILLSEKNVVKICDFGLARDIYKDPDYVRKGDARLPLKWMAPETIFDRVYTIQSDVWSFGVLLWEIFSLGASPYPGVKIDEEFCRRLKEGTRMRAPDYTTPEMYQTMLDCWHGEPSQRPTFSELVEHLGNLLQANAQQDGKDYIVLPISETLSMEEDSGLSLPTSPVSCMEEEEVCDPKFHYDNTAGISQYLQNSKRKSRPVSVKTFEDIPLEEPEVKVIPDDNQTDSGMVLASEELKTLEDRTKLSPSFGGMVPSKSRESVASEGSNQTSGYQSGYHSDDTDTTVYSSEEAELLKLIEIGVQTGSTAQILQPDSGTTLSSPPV
# [4] = Antiangiogenic activity in VEGF/bFGF-stimulated chicken embryo after 48 hrs by CAM assay; type: functional, Gallus gallus
# [5] = target: Epidermal growth factor receptor (Homo sapiens, UniProt P00533); type: cell-based, A-431
# Chain of Epidermal growth factor receptor (P00533 whole entry): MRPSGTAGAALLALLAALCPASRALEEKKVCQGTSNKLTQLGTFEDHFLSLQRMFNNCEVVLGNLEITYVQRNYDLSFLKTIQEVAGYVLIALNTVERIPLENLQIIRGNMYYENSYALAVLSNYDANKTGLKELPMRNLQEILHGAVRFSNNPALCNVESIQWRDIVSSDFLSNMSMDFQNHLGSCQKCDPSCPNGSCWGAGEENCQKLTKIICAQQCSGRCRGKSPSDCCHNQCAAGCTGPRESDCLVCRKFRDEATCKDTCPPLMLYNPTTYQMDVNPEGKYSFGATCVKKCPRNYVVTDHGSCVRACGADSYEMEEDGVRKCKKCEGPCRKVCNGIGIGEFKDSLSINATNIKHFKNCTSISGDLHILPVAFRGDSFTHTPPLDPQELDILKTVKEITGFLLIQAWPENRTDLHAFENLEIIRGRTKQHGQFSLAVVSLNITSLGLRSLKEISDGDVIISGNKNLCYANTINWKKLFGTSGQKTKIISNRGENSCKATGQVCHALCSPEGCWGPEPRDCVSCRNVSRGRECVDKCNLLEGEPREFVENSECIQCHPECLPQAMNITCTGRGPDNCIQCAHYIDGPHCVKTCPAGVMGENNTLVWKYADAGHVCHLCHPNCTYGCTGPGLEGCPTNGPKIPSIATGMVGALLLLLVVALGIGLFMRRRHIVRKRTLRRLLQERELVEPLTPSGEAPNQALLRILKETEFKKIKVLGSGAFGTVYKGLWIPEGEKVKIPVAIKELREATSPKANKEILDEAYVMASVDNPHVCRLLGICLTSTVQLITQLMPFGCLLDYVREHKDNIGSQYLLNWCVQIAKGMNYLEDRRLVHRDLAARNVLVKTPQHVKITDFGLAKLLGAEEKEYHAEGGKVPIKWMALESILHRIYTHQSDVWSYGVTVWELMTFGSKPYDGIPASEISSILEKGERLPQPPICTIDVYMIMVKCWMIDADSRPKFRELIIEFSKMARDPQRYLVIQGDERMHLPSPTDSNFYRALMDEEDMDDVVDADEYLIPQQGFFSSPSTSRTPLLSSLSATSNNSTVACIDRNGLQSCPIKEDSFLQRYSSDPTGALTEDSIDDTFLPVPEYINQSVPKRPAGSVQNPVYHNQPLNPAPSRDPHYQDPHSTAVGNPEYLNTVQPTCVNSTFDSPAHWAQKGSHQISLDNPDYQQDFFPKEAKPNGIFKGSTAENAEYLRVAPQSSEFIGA
# [6] = target: T1, Dihydrofolate reductase (Homo sapiens, UniProt P00374)
# T1 sequence (P00374 whole entry): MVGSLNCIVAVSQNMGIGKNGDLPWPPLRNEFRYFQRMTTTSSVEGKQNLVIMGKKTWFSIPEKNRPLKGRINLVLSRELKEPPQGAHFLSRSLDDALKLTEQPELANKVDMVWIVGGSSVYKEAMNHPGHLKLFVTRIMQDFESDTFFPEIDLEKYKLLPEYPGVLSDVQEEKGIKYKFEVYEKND
# [7] = target: T2, Bifunctional dihydrofolate reductase-thymidylate synthase (Toxoplasma gondii, UniProt Q07422); experiment: Inhibition of Toxoplasma gondii thymidylate synthase
# T2 sequence (Q07422 whole entry): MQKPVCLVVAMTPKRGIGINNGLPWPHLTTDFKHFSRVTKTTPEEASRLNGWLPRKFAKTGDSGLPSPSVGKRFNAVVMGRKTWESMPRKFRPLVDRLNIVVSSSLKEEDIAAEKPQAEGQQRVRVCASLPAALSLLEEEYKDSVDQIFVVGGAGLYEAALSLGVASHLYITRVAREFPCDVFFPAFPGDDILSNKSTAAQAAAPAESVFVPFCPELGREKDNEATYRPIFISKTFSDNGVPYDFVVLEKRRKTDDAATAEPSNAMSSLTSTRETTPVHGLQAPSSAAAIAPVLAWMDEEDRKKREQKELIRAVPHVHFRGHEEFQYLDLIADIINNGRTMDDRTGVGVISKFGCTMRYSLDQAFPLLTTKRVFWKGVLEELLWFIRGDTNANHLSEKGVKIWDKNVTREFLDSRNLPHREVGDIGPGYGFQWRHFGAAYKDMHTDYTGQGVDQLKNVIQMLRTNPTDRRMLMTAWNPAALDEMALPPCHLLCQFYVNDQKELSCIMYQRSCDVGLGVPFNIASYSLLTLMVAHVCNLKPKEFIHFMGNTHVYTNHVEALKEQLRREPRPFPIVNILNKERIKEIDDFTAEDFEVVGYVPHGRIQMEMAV
# [8] = target: Thymidylate synthase (Homo sapiens, UniProt P04818); experiment: Inhibition of human thymidylate synthase
# Chain of Thymidylate synthase (P04818 whole entry): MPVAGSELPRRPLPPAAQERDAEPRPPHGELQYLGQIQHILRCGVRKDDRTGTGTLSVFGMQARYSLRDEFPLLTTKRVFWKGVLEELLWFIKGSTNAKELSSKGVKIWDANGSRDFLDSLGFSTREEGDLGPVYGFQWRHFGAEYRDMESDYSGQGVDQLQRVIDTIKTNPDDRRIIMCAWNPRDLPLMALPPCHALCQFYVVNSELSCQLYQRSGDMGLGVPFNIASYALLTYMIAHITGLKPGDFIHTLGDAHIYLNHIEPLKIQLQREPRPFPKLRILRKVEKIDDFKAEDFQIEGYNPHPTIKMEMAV
# [9] = target: T2, Bifunctional dihydrofolate reductase-thymidylate synthase; experiment: Inhibition of Toxoplasma gondii DHFR
# [10] = target: Dihydroorotate dehydrogenase (quinone), mitochondrial (Homo sapiens, UniProt Q02127); experiment: Inhibition of human DHODH
# Chain of Dihydroorotate dehydrogenase (quinone), mitochondrial (Q02127 whole entry): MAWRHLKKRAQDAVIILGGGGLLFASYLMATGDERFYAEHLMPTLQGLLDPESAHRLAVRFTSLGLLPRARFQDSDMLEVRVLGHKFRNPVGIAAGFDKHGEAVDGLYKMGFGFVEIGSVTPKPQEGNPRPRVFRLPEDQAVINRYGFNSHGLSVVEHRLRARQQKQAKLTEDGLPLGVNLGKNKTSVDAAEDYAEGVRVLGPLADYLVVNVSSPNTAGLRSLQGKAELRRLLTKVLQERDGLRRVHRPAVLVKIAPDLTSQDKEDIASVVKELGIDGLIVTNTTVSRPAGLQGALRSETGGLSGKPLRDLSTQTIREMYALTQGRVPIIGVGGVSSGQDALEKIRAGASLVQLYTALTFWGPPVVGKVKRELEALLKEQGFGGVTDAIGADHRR
# [11] = Inhibition of Escherichia coli thymidylate synthase
# [12] = target: T3, Dihydroorotate dehydrogenase (Plasmodium falciparum, UniProt Q54A96); experiment: Inhibition of Plasmodium falciparum DHODH
# T3 sequence (Q54A96 whole entry): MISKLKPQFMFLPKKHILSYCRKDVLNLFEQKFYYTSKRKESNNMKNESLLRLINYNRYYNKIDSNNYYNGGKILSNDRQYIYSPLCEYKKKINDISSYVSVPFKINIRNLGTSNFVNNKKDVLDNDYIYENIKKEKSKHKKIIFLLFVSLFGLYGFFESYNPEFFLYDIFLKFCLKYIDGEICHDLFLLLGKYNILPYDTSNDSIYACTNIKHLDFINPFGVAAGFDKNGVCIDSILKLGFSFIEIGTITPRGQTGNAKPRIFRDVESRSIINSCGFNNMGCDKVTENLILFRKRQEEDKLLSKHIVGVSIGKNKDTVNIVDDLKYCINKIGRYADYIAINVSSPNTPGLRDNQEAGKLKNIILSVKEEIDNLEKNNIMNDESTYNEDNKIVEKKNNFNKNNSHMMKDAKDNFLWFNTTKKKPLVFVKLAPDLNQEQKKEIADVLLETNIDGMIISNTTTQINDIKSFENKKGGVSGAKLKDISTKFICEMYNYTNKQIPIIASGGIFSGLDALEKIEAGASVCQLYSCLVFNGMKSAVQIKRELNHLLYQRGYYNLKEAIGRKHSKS
# [13] = system: B16-F10; experiment: Antitumor activity against mouse B16F10 cells allografted in NCr nu/nu mouse assessed as inhibition of tumor angiogenesis at 35 mg/kg, ip administered three times weekly for 2 weeks
# [14] = system: B16-F10; experiment: Antitumor activity against mouse B16F10 cells allografted in NCr nu/nu mouse assessed as tumor growth reduction at 35 mg/kg, ip administered three times weekly for 2 weeks
# [15] = system: B16-F10; experiment: Antitumor activity against mouse B16F10 cells allografted in NCr nu/nu mouse assessed as decrease in tumor metastasis at 35 mg/kg, ip administered three times weekly for 2 weeks
Compound,pIC50 [1],pIC50 [2],pIC50 [3],pIC50 [4],pIC50 [5],further results
Nc1nc2c(c(Nc3ccc(Br)cc3)n1)-c1ccccc1C2,3.99,4.41,4.52,4.72,,
CC(C)c1ccccc1Nc1nc(N)nc2c1-c1ccccc1C2,3.90,,< 3.70,5.67,< 3.70,
Nc1nc2c(c(Nc3ccc(F)cc3)n1)-c1ccccc1C2,4.30,5.23,4.05,4.33,3.56,
Nc1nc2c(c(Nc3cccc(Cl)c3)n1)-c1ccccc1C2,3.63,< 3.30,,,,
Nc1nc2c(c(Nc3cccc(Br)c3)n1)-c1ccccc1C2,< 3.30,,< 3.70,,,pIC50 [6]: < 4.85; pIC50 [7]: < 4.92; pIC50 [8]: < 4.92; pIC50 [9]: < 4.85; pIC50 [10]: < 3.70; pIC50 [11]: < 4.92; pIC50 [12]: < 3.70
Nc1nc2c(c(Nc3ccccc3)n1)-c1ccccc1C2,5.31,,,,< 3.70,pIC50 [10]: < 3.70; pIC50 [12]: < 3.70
Cc1[nH]c(/C=C2\C(=O)Nc3ccccc32)c(C)c1CCC(=O)O,,,,,,Activity [13]: Active; growth inhibition (GI) [14]: Active; Activity [15]: Active
